Test results taken from patent publication US20120277517A1, “Formulation and Methods for Enhanced Interventional Image-Guided Therapy of Cancer” (The Johns Hopkins University, priority 2011, published 2012).

System: Hep3B cells
Assay: Intratumoral injection with or without AMF hyperthermia in mice with subcutaneous Hep3B tumors
Format: in vivo, mouse
Conditions: may be attributed to hyperthermia
From the text: In another exemplary experiment, Hep3B cells were implanted by subcutaneous injection of 3×10^6 Hep3B cells suspended in PBS into the right flank of each mouse that was randomly assigned into 2 main groups (heated and unheated) that were further divided into three subgroups. When tumors reached 100 mm^3, these received intratumoral injections of T-C formulation, BNF particles alone, or PBS (3 subgroups). The heated group (9 mice) received AMF hyperthermia. Two mice from each subgroup were euthanized 24 hours following treatment, and the remaining one was euthanized when tumor in the PBS group reached 2000 mm^3.
For AMF exposure, each mouse was placed in a chamber constructed from a standard polypropylene 50-mL conical centrifuge tube that was positioned in the center of the solenoid coil. Prior to AMF therapy, each mouse received intraperitoneal injections of ketamine/xylazine (anesthesia) at an approximate dose of a 200-μL injection. Each mouse was placed in the coil for 30 min and exposed to one of the following AMF amplitudes: 0, 24, or 60 kA/m. […] During AMF exposure, mice were placed into the AMF inductor coil and therefore exposed to maximum magnetic field, corresponding to the measured (by field probe) field. Rectal and tumor temperatures were measured at one-second intervals for each mouse exposed to AMF using fiber optic temperature probes.

degradation of doxorubicin: 7-8%
Compound: COc1cccc2c1C(=O)c1c(O)c3c(c(O)c1C2=O)C[C@@](O)(C(=O)CO)C[C@@H]3O[C@H]1C[C@H](N)[C@H](O)[C@H](C)O1 [doxorubicin]
